# Reference: US7410974B2, “Halogenated Quinazolinyl nitrofurans as antibacterial agents” (Ulysses Pharmaceutical Products, Inc., priority 2003, dated 2008)
# Like-named read-outs stand apart in the source and are kept apart here.
# Legend:
# [1] = tested on: S. saprophyticus ATCC 15305; test: MIC broth microdilution (NCCLS); format: cell-based, Staphylococcus saprophyticus; settings: Staphylococcus saprophyticus, ATCC15305; S. saprophyticus ATCC 15305; read-out: MIC
# Procedure, shortened: (§1)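 NCCLS broth microdilution; inoculum 10^5-10^6 CFU/ml; 2-fold serial dilutions; 35° C, 24 h; A650 plus visual read. Media: MHBCA (S. saprophyticus, E. faecium), MHBCA + 2% laked horse blood (Listeria), HTM (Haemophilus), the last two under 5% CO2.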
# E. coli MC4100 = test: MIC broth microdilution (NCCLS); format: cell-based; settings: Escherichia coli; E. coli MC4100, pathotype Reference
# Method: (§2) Minimal Inhibitory Concentration (MIC) Determination. Bacteria (primary strain panel, TABLE 1). Susceptibility tests were performed following the recommendations from the National Committee for Clinical Standards (NCCLS). The MICs were determined by a broth microdilution technique using a final volume of 100 μl of cation-adjusted Mueller Hinton Broth (MHBCA) and a bacterial inoculum of 10^5-10^6 Colony Forming Units (CFU)/ml. The inocula were verified and precisely determined by applying 10-μl drops of 10-fold dilutions onto Triptic Soy Agar plates. The CFU were counted after an incubation of 24 h at 35° C. Any experiment showing an inoculum that was more or less than 10^5-10^6 CFU/ml was rejected. Control antibiotics and test compounds were prepared at a concentration equivalent to 2-fold the highest desired final concentration. Compounds were then diluted directly in the 96-well microtiter plates by serial 2-fold dilutions using a multichannel pipette. Microtiter plates were incubated during 24 h at 35° C. and growth was recorded by using a microtiterplate reader at 650 nm as well as by visual observation. The MIC was defined as the lowest concentration of compound yielding no visible growth. […] Fastidious bacteria. The medium used for Listeria monocytogenes, Neisseria meningitidis, and Campylobacter jejuni was MHBCA containing 2% laked horse blood. The medium used for Haemophilus influenzae and Branhamella (Moraxella) catarrhalis was HTM as recommended by the NCCLS. Cultures of these fastidious bacteria were incubated at 35° C. in a 5% CO2 atmosphere. […] The medium used for Bacteroides fragilis was Wilkins Chalgren broth and growth was allowed under an anaerobic atmosphere at 35° C. for 48 hours.
# E. coli ATCC 25922 [2] = test: MIC broth microdilution (NCCLS); format: cell-based, Escherichia coli
# E. faecium ATCC 35667 = test: MIC broth microdilution (NCCLS); format: cell-based, Enterococcus faecium; settings: Enterococcus faecium, ATCC35667, E. faecium ATCC 35667; read-out: MIC
# Procedure, shortened: as §1
# B. catarrhalis ATCC 8176 [3] = test: MIC broth microdilution (NCCLS), fastidious bacteria; format: cell-based, Branhamella (Moraxella) catarrhalis; settings: Moraxella catarrhalis, ATCC8176, HTM, 5% CO2
# Procedure, shortened: (§3)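 Susceptibility by NCCLS microdilution: checked inoculum 10^5-10^6 CFU/ml, 24 h at 35° C, and growth assessed at 650 nm and by eye. Haemophilus was tested in HTM medium and Listeria with laked horse blood, each incubated under 5% CO2.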
# S. aureus ATCC 29213 = test: MIC broth microdilution (NCCLS); format: cell-based, Staphylococcus aureus; settings: Staphylococcus aureus, ATCC29213; S. aureus ATCC 29213; read-out: MIC
# E. faecalis ATCC 29212 = test: MIC broth microdilution (NCCLS); format: cell-based, Enterococcus faecalis; settings: Enterococcus faecalis, ATCC29212; E. faecalis ATCC 29212; read-out: MIC
# B. catarrhalis ATCC 8176 [4] = test: Minimal Bactericidal Concentration (MBC); format: cell-based, Branhamella (Moraxella) catarrhalis; settings: Moraxella catarrhalis, ATCC8176, 99.9% killing
# Method: Minimal Bactericidal Concentration (MBC). After the microtiter plates were read for the determination of the MIC, a 10-μl sample of each clear well (at least 5 wells without visible growth) was applied onto TSA plates for viable counts determination.
# Petri dishes were incubated at 35° C. for exactly 24 h and bacterial colonies were counted.
# S. aureus MRSA COL = test: MIC broth microdilution (NCCLS); format: cell-based, Staphylococcus aureus; settings: Staphylococcus aureus, MRSA, S. aureus MRSA COL; read-out: MIC
# Procedure, shortened: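 Broth microdilution per NCCLS in cation-adjusted Mueller Hinton broth, inoculum 10^5-10^6 CFU/ml verified by plate count. Compounds serially diluted 2-fold; plates incubated 24 h at 35° C. MIC taken as lowest concentration giving no visible growth, with growth also read at 650 nm.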
# H. influenzae ATCC 49766 [5] = test: Minimal Bactericidal Concentration (MBC); format: cell-based; settings: Haemophilus influenzae, ATCC49766, 99.9% killing
# Procedure, shortened: (§4)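 Wells lacking visible growth in the MIC plates are sampled, at least 5 per series, and spread onto TSA. The dishes are kept at 35° C. for exactly 24 h, then bacterial colonies are enumerated.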
# H. influenzae ATCC 49247 [6] = test: Minimal Bactericidal Concentration (MBC); format: cell-based; settings: Haemophilus influenzae, ATCC49247, 99.9% killing
# Procedure, shortened: as §4
# H. influenzae ATCC 49766 [7] = test: MIC broth microdilution (NCCLS), fastidious bacteria; format: cell-based; settings: Haemophilus influenzae, ATCC49766, HTM, 5% CO2
# Procedure, shortened: as §3
# H. influenzae ATCC 49247 [8] = test: as above; format: cell-based; settings: Haemophilus influenzae, ATCC49247, HTM, 5% CO2
# Procedure, shortened: as §3
# [9] = tested on: E. coli d25-ALR-pen14 (O157:H7); test: MIC broth microdilution, E. coli strains; format: cell-based; settings: Escherichia coli
# Method: as §2
# (§5) Finally, compounds were also tested against populations of various clinical strains (antibiotic resistant strain panel, TABLE 1).
# E. coli Ec027c (EIEC) = test: MIC broth microdilution, E. coli strains; format: cell-based; settings: Escherichia coli, pathotype EIEC
# Method: as §2, §5
# [10] = tested on: E. coli d4-OLR-pen10 (O157:H7); test: MIC broth microdilution, E. coli strains; format: cell-based; settings: Escherichia coli
# Method: as §2, §5
# E. coli Ec119c (EIEC) = test: MIC broth microdilution, E. coli strains; format: cell-based; settings: Escherichia coli, pathotype EIEC
# Method: as §2, §5
# [11] = tested on: E. coli ATCC 35150 (O157:H7); test: MIC broth microdilution, E. coli strains; format: cell-based; settings: Escherichia coli, ATCC35150
# Method: as §2, §5
# E. coli Ec118c (EIEC) = test: MIC broth microdilution, E. coli strains; format: cell-based; settings: Escherichia coli, pathotype EIEC
# Method: as §2, §5
# E. coli Ec117c (EIEC) = test: MIC broth microdilution, E. coli strains; format: cell-based; settings: Escherichia coli, pathotype EIEC
# Method: as §2, §5
# E. coli Ec022c (EIEC) = test: MIC broth microdilution, E. coli strains; format: cell-based; settings: Escherichia coli, pathotype EIEC
# Method: as §2, §5
# [12] = tested on: S. epidermidis ATCC 12228; test: MIC broth microdilution (NCCLS); format: cell-based, Staphylococcus epidermidis; settings: Staphylococcus epidermidis, ATCC12228; S. epidermidis ATCC 12228; read-out: MIC
# Procedure, shortened: as §3
# B. fragilis ATCC 25285 = test: MIC broth microdilution (NCCLS), anaerobic; format: cell-based; settings: Bacteroides fragilis
# Method: as §2
# [13] = tested on: S. saprophyticus ATCC 15305; test: Minimal Bactericidal Concentration (MBC); format: cell-based; settings: Staphylococcus saprophyticus, ATCC15305; S. saprophyticus ATCC 15305; 99.9% killing; read-out: MBC
# Procedure, shortened: as §4
# E. coli ATCC 25922 [14] = test: Minimal Bactericidal Concentration (MBC); format: cell-based; settings: Escherichia coli, ATCC25922, 99.9% killing
# Procedure, shortened: as §4
# [15] = tested on: L. monocytogenes ATCC 13932; test: MIC broth microdilution (NCCLS), fastidious bacteria; format: cell-based; settings: Listeria monocytogenes, ATCC13932, MHBCA with 2% laked horse blood, 5% CO2
# Procedure, shortened: as §3
# C. jejuni ATCC 33291 = test: as above; format: cell-based; settings: Campylobacter jejuni, ATCC33291
# Procedure, shortened: as §3
# [16] = tested on: Y. enterocolytica ATCC 23715; test: MIC broth microdilution (NCCLS); format: cell-based, Yersinia enterocolytica; settings: Yersinia, ATCC23715, read-out: MIC
# Procedure, shortened: as §3
# A. baumannii ATCC 19606 = test: MIC broth microdilution (NCCLS); format: cell-based, Acinetobacter baumannii; settings: Acinetobacter baumannii, ATCC19606, read-out: MIC
# Procedure, shortened: as §3
# [17] = Escherichia coli, ATCC25922, E. coli ATCC 25922 (Reference), read-out: MIC
smiles,measurement,setting,value
CC1(C)S[C@@H]2[C@H](NC(=O)[C@H](N)c3ccccc3)C(=O)N2[C@H]1C(=O)O [Ampicillin],MIC,[1],0.12 µg/mL
same,MIC,E. coli MC4100,4 µg/mL
same,MIC,E. coli ATCC 25922 [2]; E. coli ATCC 25922 (Reference),4 µg/mL
same,MIC,E. coli ATCC 25922 [2]; [17],4 to 8 µg/mL
same,MIC,E. faecium ATCC 35667,1 µg/mL
same,MIC,B. catarrhalis ATCC 8176 [3],≤ 0.03 µg/mL
same,MIC,S. aureus ATCC 29213,1 to 2 µg/mL
same,MIC,E. faecalis ATCC 29212,1 µg/mL
same,MBC,B. catarrhalis ATCC 8176 [4],≤ 0.03 µg/mL
same,MIC,S. aureus MRSA COL,8 µg/mL
same,MBC,H. influenzae ATCC 49766 [5],≤ 0.12 µg/mL
same,MBC,H. influenzae ATCC 49247 [6],4 µg/mL
same,MIC,H. influenzae ATCC 49766 [7],≤ 0.12 µg/mL
same,MIC,H. influenzae ATCC 49247 [8],2 to 4 µg/mL
same,MIC,[9],2 to 4 µg/mL
same,MIC,E. coli Ec027c (EIEC),> 64 µg/mL
same,MIC,[10],2 to 4 µg/mL
same,MIC,E. coli Ec119c (EIEC),> 64 µg/mL
same,MIC,[11],2 µg/mL
same,MIC,E. coli Ec118c (EIEC),> 64 µg/mL
same,MIC,E. coli Ec117c (EIEC),16 µg/mL
same,MIC,E. coli Ec022c (EIEC),> 64 µg/mL
same,MIC,[12],64 µg/mL
O=C(N[C@H](CO)[C@H](O)c1ccc([N+](=O)[O-])cc1)C(Cl)Cl [Chloramphenicol],MIC,[1],4 to 8 µg/mL
same,MIC,E. coli ATCC 25922 [2]; [17],4 µg/mL
same,MIC,E. faecium ATCC 35667,8 µg/mL
same,MIC,S. aureus ATCC 29213,16 µg/mL
same,MIC,E. faecalis ATCC 29212,8 µg/mL
same,MIC,S. aureus MRSA COL,8 µg/mL
same,MIC,"B. fragilis ATCC 25285; ATCC25285, B. fragilis ATCC 25285, Wilkins Chalgren broth, anaerobic, 48 hours, read-out: MIC",4 µg/mL
same,MBC,[13],16 to 32 µg/mL
same,MBC,E. coli ATCC 25922 [14],16 µg/mL
same,MIC,[15],0.001 µg/mL
same,MIC,"C. jejuni ATCC 33291; C. jejuni ATCC 33291, MHBCA with 2% laked horse blood, 5% CO2, read-out: MIC",4 µg/mL
same,MIC,[12],8 µg/mL
C[C@@H](O)[C@H]1C(=O)N2C(C(=O)O)=C(SCCN=CN)C[C@H]12 [Imipenem],MIC,[1],0.03 µg/mL
same,MIC,[16],0.5 µg/mL
same,MIC,E. coli ATCC 25922 [2]; [17],0.12 µg/mL
same,MIC,E. faecium ATCC 35667,2 µg/mL
same,MIC,A. baumannii ATCC 19606,16 µg/mL
same,MIC,S. aureus ATCC 29213,0.015 µg/mL
same,MIC,E. faecalis ATCC 29212,0.5 µg/mL
same,MIC,S. aureus MRSA COL,16 µg/mL
same,MIC,"B. fragilis ATCC 25285; ATCC25285, 48 h",0.125 to 0.5 µg/mL
same,MBC,[13],0.03 to 0.06 µg/mL
same,MIC,C. jejuni ATCC 33291,0.125 µg/mL
same,MIC,[12],0.008 to 0.015 µg/mL
"O=[N+]([O-])c1ccc(C=Cc2nc(Nc3cccc(O)c3)c3cc(F)ccc3n2)o1 [VI, 6-fluoro-2-[2-(5-nitro-2-furyl)vinyl]-4-(m-hydroxyanilino)-quinazoline]",melting point,,241 to 242 °C (dec.)
